{"source": "paper PMC5765510", "about": "“One pot synthesis of GDP‐mannose by a multi‐enzyme cascade for enzymatic assembly of lipid‐linked oligosaccharides” (Biotechnology and Bioengineering, 2017)", "type_in_all_cases": "biochemical", "key": {"[1]": {"target": "T1, His6-Glk (Escherichia coli, UniProt P0A6V8)", "T1 construct": "N-terminal His6 tag, pET-28a(+), expressed in E. coli BL21-Gold(DE3), IMAC purified, 39 kDa", "T1 sequence (P0A6V8 1-321)": "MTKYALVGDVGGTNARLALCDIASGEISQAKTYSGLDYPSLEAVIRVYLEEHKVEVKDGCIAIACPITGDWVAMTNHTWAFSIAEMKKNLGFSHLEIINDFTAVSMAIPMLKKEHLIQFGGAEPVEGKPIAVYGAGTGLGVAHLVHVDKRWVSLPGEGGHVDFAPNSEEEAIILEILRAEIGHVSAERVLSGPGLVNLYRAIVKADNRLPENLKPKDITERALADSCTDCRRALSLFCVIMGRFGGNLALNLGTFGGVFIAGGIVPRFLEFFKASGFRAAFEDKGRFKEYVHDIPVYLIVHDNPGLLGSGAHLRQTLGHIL", "experiment": "man6P formation, HPAEC-UV/CD", "conditions": "10 mM MgCl2, pH 7.5, 30 °C"}, "[2]": {"target": "T2, 1D-Ppk2 (His6-1D-Ppk2) (Pseudomonas aeruginosa, UniProt Q9I154)", "T2 construct": "gene PA2428; N-terminal His6 tag, codon-optimised synthetic gene, pET-28a(+), expressed in E. coli BL21-Gold(DE3), IMAC purified, 38 kDa", "T2 sequence (Q9I154 1-304)": "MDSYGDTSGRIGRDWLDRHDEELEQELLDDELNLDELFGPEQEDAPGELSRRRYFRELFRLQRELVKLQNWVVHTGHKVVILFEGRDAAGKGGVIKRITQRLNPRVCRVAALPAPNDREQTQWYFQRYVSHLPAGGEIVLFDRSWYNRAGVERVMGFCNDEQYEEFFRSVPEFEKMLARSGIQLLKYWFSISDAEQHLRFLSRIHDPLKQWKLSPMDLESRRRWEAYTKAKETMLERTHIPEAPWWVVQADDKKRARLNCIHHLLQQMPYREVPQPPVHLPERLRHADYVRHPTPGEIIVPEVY", "experiment": "polyphosphate-dependent phosphorylation, HPAEC-UV", "conditions": "4 mM PolyP14, 10 mM MgCl2, pH 7.5, 30 °C; reversible"}, "[3]": {"target": "T3, ManB-His6 (ManB-His6/ManC) (Escherichia coli, UniProt P24175)", "T3 construct": "C-terminal His6 ManB co-expressed and co-purified with untagged ManC, E. coli BL21-Gold(DE3), 50 kDa; ManB/ManC ratio only estimated 1:1; with Mannose-1-phosphate guanylyltransferase", "T3 sequence (P24174 whole entry)": "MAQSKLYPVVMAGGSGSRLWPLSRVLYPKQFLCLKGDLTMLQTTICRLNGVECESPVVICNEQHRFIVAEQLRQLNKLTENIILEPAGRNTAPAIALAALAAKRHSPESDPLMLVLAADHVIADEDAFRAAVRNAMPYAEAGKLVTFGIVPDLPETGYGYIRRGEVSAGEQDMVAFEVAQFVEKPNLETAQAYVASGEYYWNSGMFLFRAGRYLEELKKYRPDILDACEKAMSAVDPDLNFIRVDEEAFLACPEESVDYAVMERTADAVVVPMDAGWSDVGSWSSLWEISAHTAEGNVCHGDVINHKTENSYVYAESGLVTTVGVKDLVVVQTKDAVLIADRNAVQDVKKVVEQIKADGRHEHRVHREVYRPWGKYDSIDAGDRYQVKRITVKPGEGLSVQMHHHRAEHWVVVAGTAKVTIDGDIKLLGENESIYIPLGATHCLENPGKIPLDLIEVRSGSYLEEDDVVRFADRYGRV", "T3 sequence (P24175 whole entry)": "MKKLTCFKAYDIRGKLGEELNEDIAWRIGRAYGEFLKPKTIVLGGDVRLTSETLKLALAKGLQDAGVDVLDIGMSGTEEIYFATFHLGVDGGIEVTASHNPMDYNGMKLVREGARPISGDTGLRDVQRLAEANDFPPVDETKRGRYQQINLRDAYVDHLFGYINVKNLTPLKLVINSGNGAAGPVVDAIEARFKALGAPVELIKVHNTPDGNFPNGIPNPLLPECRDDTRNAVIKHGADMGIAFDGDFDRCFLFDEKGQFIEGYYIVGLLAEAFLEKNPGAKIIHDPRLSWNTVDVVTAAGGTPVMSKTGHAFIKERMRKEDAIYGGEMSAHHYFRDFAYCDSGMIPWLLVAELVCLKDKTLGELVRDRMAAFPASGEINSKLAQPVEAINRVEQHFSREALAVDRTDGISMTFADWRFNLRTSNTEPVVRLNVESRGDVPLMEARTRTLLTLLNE", "experiment": "man1P/man6P equilibrium, HPAEC-CD", "conditions": "1.8 mM, 0.25 mM glucose-1,6-bisphosphate, 10 mM MgCl2, pH 7.5, 30 °C"}}, "data": [{"smiles": "OC[C@H]1OC(O)[C@@H](O)[C@@H](O)[C@@H]1O", "note": "(some centres unmarked) [mannose]", "values": [{"measurement": "man6P formation, HPAEC-UV/CD", "setting": "[1]; ATP 1.7 mM, irreversible", "value": "conversion of ATP and mannose to man6P and ADP is irreversible"}]}, {"smiles": "Nc1ncnc2c1ncn2[C@@H]1O[C@H](COP(=O)(O)OP(=O)(O)OP(=O)(O)O)[C@@H](O)[C@H]1O", "note": "[ATP]", "values": [{"measurement": "man6P formation, HPAEC-UV/CD", "setting": "[1]; mannose co-substrate", "value": "conversion of ATP and mannose to man6P and ADP is irreversible"}]}, {"smiles": "Nc1ncnc2c1ncn2[C@@H]1O[C@H](COP(=O)(O)OP(=O)(O)O)[C@@H](O)[C@H]1O", "note": "[ADP]", "values": [{"measurement": "polyphosphate-dependent phosphorylation, HPAEC-UV", "setting": "[2]", "value": "phosphorylation of ADP and GDP, respectively, by His6‐1D‐Ppk2 are equilibrium reactions"}]}, {"smiles": "Nc1nc2c(ncn2[C@@H]2O[C@H](COP(=O)(O)OP(=O)(O)O)[C@@H](O)[C@H]2O)c(=O)[nH]1", "note": "[GDP]", "values": [{"measurement": "polyphosphate-dependent phosphorylation, HPAEC-UV", "setting": "[2]", "value": "phosphorylation of ADP and GDP, respectively, by His6‐1D‐Ppk2 are equilibrium reactions"}]}, {"smiles": "O=P(O)(O)O[C@H]1O[C@H](CO)[C@@H](O)[C@H](O)[C@@H]1O", "note": "[man1P]", "values": [{"measurement": "man1P/man6P equilibrium, HPAEC-CD", "setting": "[3]", "value": "equilibrium conversion of man1P to man6P catalyzed by the ManB‐His6/ManC complex"}]}]}
